19 compounds from patent publication US5508383A, “Cyclic peptide LHRH antagonists” (Tap Holdings Inc., priority 1994, dated 1996) can be followed below.

In the assay the target is T1, LHRH (Rattus norvegicus, UniProt P30969).
T1 construct: endogenous in cells; host or cells: pituitary cells (own knowledge of the cited method)
T1 sequence (P30969 1-327): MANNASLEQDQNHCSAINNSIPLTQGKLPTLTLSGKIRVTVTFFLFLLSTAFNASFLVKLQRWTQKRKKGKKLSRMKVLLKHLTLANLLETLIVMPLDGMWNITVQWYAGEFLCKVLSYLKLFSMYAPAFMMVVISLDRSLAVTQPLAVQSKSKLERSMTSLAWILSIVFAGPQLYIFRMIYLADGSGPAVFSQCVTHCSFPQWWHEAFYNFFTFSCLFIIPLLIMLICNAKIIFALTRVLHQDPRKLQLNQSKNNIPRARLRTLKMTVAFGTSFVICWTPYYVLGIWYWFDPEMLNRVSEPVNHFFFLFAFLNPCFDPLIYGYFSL
Briefly: in vitro test for LHRH antagonist potency (pA2), shift of the leuprolide response curve. In kind it is cell-based. The following applies: negative logarithm of antagonist concentration required to shift the response curve produced by the agonist leuprolide to two-fold higher concentration. The procedure: Representative compounds of the present invention were evaluated in an in vitro test for LHRH antagonist potency (pA2). The test employed the method detailed in F. Haviv, et al. J. Med. Chem., 32: 2340-2344 (1989). The values of pA2 are the negative logarithms of the concentration of the particular antagonist test compound required to shift the response curve produced by the agonist leuprolide to two-fold higher concentration. (Leuprolide is the LHRH agonist having the structure 5-oxo-Pro^1 -His^2 -Trp^3 -Ser^4 -Tyr^5 -D-Leu^6 -Leu^7 -Arg^8 -Pro-^9 -NHEt and is disclosed and claimed in U.S. Pat. No. 4,005,063.) Typically pA2 values of 6.0 or greater are indicative of acceptable LHRH antagonist potency, with compounds having pA2 values of 9.0 or greater being preferred.

Where a SMILES comes first, the peptide text is derived from it. Bridges are numbered along the chain shown (N, C = ends). [ ]: non-standard residue; d: D form. The star is where a group is joined. Propanoyl(3-(4-Cl-Ph)) = O=C(CCc1ccc(Cl)cc1)*; Phenylacetyl(4-F) = O=C(Cc1ccc(F)cc1)*; Lys(iPr) = CC(C)NCCCC[C@H](N)C(=O)O; NMeY = CN[C@@H](Cc1ccc(O)cc1)C(=O)O; Nicotinoyl = O=C(c1cccnc1)*

As to “Ac-D2Nal-D4ClPhe-c-{DLys-Ser-NMeTyr-DLys(Nicotinyl)-Leu-Lys(N-epsilon-Isopropyl)-Pro-DGlu}-NH2 [Example 1]”, the pA2 (commonly a measure of antagonist potency on a negative log scale) is 10.16. Take `CC(C)C[C@@H]1NC(=O)[C@@H](CCCCNC(=O)c2cccnc2)NC(=O)[C@H](Cc2ccc(O)cc2)N(C)C(=O)[C@H](CO)NC(=O)[C@H](NC(=O)Cc2ccc(F)cc2)CCCCNC(=O)CC[C@H](C(N)=O)NC(=O)[C@@H]2CCCN2C(=O)[C@H](CCCCNC(C)C)NC1=O` [Example 10, 4F-Phenylacetyl-c-{DLys-Ser-NMeTyr-DLys(Nicotinyl)-Leu-Lys(N-epsilon-Isopropyl)-Pro-DGlu}-NH2] ({Phenylacetyl(4-F)}-[dK]S[NMeY][dK](Nicotinoyl)L[Lys(iPr)]P[dE]-NH2; lactam 1-8): the Kb (in general, the equilibrium dissociation constant of an antagonist, usually derived from a functional assay) was 724 nM. With “4FPhenylacetyl-c-{DGlu-Ser-NMeTyr-DLys(Nicotinyl)-Leu-Lys(N-epsilon-Isopropyl)-Pro-DLys}-NH2 [Example 15]”, the pA2 is 5.66. Regarding “Ac-D2Nal-D4ClPhe-c-{DGlu-Ser-NMeTyr-DLys(Nicotinyl)-Leu-Lys(N-epsilon-Isopropyl)-Pro-DLys}-NH2 [Example 7]”, the pA2 was 9.58. Still for that read-out and setting: in the case of “Ac-D2Nal-D4ClPhe-c-{DLys-Ser-Tyr-DLys(Nicotinyl)-Leu-Lys(N-epsilon-Isopropyl)-Pro-Glu}-NH2 [Example 2]” it was 9.27.

Turning to `CC(C)C[C@@H]1NC(=O)[C@@H](CCCCNC(=O)c2cccnc2)NC(=O)[C@H](Cc2ccc(O)cc2)N(C)C(=O)[C@H](CO)NC(=O)[C@H](NC(=O)CCc2ccc(Cl)cc2)CCCCNC(=O)CC[C@H](C(N)=O)NC(=O)CNC(=O)[C@H](CCCCNC(C)C)NC1=O` [Example 16, 4ClPhenylpropionyl-c-{DLys-Ser-NMeTyr-DLys(Nicotinyl)-Leu-Lys(N-epsilon-Isopropyl)-Gly-DGlu}-NH2] ({Propanoyl(3-(4-Cl-Ph))}-[dK]S[NMeY][dK](Nicotinoyl)L[Lys(iPr)]G[dE]-NH2; lactam 1-8), the Kb was 40.7 nM. On to “Ac-D2Nal-D4ClPhe-c-{DLys-Ser-Tyr-DLys(Nicotinyl)-Leu-Lys(N-epsilon-Isopropyl)-Pro-DGlu}-NH2 [Example 8]”, for which the pA2 worked out at 9.66. Take “Ac-D2Nal-D4ClPhe-c-{Lys-Ser-NMeTyr-DLys(Nicotinyl)-Leu-Lys(N-epsilon-Isopropyl)-Pro-Glu}-NH2 [Example 5]”: the pA2 was 8.2.

With “Ac-D2Nal-D4ClPhe-c-{Glu-Ser-NMeTyr-DLys(Nicotinyl)-Leu-Lys(N-epsilon-Isopropyl)-Pro-DOrn}-NH2 [Example 6]”, the pA2 is on record as 7.54. For the compound `CC(=O)N[C@@H]1CCC(=O)NCCCC[C@H](C(N)=O)NC(=O)[C@@H]2CCCN2C(=O)[C@H](CCCCNC(C)C)NC(=O)[C@H](CC(C)C)NC(=O)[C@@H](CCCCNC(=O)c2cccnc2)NC(=O)[C@H](Cc2ccc(O)cc2)N(C)C(=O)[C@H](CO)NC1=O` [Example 11, Ac-c-{DGlu-Ser-NMeTyr-DLys(Nicotinyl)-Leu-Lys(N-epsilon-Isopropyl)-Pro-DLys}-NH2] (Ac-[dE]S[NMeY][dK](Nicotinoyl)L[Lys(iPr)]P[dK]-NH2; lactam 1-8), the Kb is 20.4 nM. The same measure, in the same setting: in the case of `CC(=O)N[C@@H]1CCCCNC(=O)CC[C@H](C(N)=O)NC(=O)[C@@H]2CCCN2C(=O)[C@H](CCCCNC(C)C)NC(=O)[C@H](CC(C)C)NC(=O)[C@@H](CCCCNC(=O)c2cccnc2)NC(=O)[C@H](Cc2ccc(O)cc2)N(C)C(=O)[C@H](CO)NC1=O` [Example 9, Ac-c-{DLys-Ser-NMeTyr-DLys(Nicotinyl)-Leu-Lys(N-epsilon-Isopropyl)-Pro-DGlu}-NH2] (Ac-[dK]S[NMeY][dK](Nicotinoyl)L[Lys(iPr)]P[dE]-NH2; lactam 1-8) it was 6.17 nM. As for “Ac-D2Nal-D4ClPhe-c-{DGlu-Ser-NMeTyr-DLys(Nicotinyl)-Leu-Lys(N-epsilon-Isopropyl)-Pro-Lys}-NH2 [Example 12]”, the pA2 is recorded as 9.77.

In the case of “NAc-c-{DGlu-Gly-NMeTyr-DLys(Nicotinyl)-Leu-Lys(N-epsilon-Isopropyl)-Sar-DLys}-NH2 [Example 19]”, the pA2 was determined as 5.95. In the case of “Ac-D2Nal-D4ClPhe-c-{DLys-Ser-NMeTyr-DLys(Nicotinyl)-Leu-Lys(N-epsilon-Isopropyl)-Pro-Glu}-NH2 [Example 4]”, the pA2 turned out to be 10.05.

As for `CC(C)C[C@@H]1NC(=O)[C@@H](CCCCNC(=O)c2cccnc2)NC(=O)[C@H](Cc2ccc(O)cc2)N(C)C(=O)CNC(=O)[C@H](NC(=O)CCc2ccc(Cl)cc2)CCCCNC(=O)CC[C@H](C(N)=O)NC(=O)CNC(=O)[C@H](CCCCNC(C)C)NC1=O` [Example 18, 4ClPhepropionyl-c-{DLys-Gly-NMeTyr-DLys(Nicotinyl)-Leu-Lys(N-epsilon-Isopropyl)-Gly-DGlu}-NH2] ({Propanoyl(3-(4-Cl-Ph))}-[dK]G[NMeY][dK](Nicotinoyl)L[Lys(iPr)]G[dE]-NH2; lactam 1-8), the Kb is greater than 1000 nM. As for “NAc-D2Nal D4ClPhe-c-{DLys-Gly-NMeTyr-DLys(Nicotinyl)-Leu-Lys(N-epsilon-Isopropyl)-Gly-DGlu}-NH2 [Example 17]”, the pA2 turned out to be 8.29. `CC(C)C[C@@H]1NC(=O)[C@@H](CCCCNC(=O)c2cccnc2)NC(=O)[C@H](Cc2ccc(O)cc2)N(C)C(=O)[C@H](CO)NC(=O)[C@H](NC(=O)CCc2ccc(Cl)cc2)CCCCNC(=O)CC[C@H](C(N)=O)NC(=O)[C@@H]2CCCN2C(=O)[C@H](CCCCNC(C)C)NC1=O` [Example 13, 4ClPhenylpropionyl-c-{DLys-Ser-NMeTyr-DLys(Nicotinyl)-Leu-Lys(N-epsilon-Isopropyl)-Pro-DGlu}-NH2] ({Propanoyl(3-(4-Cl-Ph))}-[dK]S[NMeY][dK](Nicotinoyl)L[Lys(iPr)]P[dE]-NH2; lactam 1-8): the Kb was 19.1 nM. Turning to “Ac-D2Nal-D4ClPhe-c-{DOrn-Ser-NMeTyr-DLys(Nicotinyl)-Leu-Lys(N-epsilon-Isopropyl)-Pro-DGlu}-NH2 [Example 14]”, the pA2 came to 9.52. In the case of “Ac-D2Nal-D4ClPhe-c-{Lys-Ser-NMeTyr-DLys(Nicotinyl)-Leu-Lys(N-epsilon-Isopropyl)-Pro-DGlu}-NH2 [Example 3]”, the pA2 was 8.73.
